{"source": "paper PMC2918654", "about": "(Bioorganic & medicinal chemistry, 2010)", "key": {"[1]": {"biological_target": "T1, δ-opioid receptors (Rattus norvegicus, UniProt P33533)", "T1 sequence (P33533 whole entry)": "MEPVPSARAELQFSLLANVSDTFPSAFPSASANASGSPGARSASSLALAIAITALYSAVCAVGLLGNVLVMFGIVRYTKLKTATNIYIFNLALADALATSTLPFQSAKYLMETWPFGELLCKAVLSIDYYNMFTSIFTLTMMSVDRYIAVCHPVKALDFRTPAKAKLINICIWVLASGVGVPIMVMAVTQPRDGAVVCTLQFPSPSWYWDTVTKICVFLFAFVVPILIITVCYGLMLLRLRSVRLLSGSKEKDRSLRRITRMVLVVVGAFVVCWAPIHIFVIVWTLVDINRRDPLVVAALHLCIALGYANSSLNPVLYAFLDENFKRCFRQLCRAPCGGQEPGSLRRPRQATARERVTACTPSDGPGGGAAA", "conditions": "ref Balboni et al.[14]; cited from earlier work"}, "[2]": {"biological_target": "T2, δ-opioid receptor (Mus musculus, UniProt P32300)", "T2 sequence (P32300 whole entry)": "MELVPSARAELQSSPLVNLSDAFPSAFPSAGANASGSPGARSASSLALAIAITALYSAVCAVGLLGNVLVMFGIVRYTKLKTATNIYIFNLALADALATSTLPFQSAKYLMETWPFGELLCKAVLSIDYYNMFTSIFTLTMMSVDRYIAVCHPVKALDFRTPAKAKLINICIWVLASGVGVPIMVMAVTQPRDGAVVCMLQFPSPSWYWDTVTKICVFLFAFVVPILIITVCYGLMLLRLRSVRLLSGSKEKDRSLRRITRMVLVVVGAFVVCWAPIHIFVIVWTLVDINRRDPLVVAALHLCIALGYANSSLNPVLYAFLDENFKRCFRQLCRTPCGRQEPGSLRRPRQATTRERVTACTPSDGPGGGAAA", "conditions": "δ antagonism, cited from earlier work"}, "[3]": {"biological_target": "T3, μ-opioid receptor (Cavia porcellus, UniProt P97266)", "T3 sequence (P97266 whole entry, looked up)": "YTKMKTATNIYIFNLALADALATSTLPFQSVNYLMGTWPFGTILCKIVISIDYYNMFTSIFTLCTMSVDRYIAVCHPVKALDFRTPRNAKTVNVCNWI", "conditions": "μ antagonism, cited from earlier work"}, "[4]": {"biological_target": "T3, μ-opioid receptor", "test": "Electrically stimulated guinea-pig ileum", "type": "cell-based, guinea pigs"}, "[5]": {"biological_target": "T2, δ-opioid receptor", "test": "Electrically stimulated mouse vas deferens", "type": "cell-based"}, "[6]": {"biological_target": "μ-opioid receptors (Rattus norvegicus, UniProt P33535)", "sequence (P33535 whole entry)": "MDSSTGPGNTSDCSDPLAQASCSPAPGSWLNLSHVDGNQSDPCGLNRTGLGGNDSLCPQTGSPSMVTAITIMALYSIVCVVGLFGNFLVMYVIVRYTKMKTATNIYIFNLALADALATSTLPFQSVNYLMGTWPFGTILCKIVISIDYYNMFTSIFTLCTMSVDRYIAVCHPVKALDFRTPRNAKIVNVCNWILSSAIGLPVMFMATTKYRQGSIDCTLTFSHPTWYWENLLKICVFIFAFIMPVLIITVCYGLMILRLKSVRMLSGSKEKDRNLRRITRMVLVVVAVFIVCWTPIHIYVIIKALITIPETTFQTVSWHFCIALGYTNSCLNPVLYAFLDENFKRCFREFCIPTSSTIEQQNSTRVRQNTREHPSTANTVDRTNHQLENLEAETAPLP", "test": "Competitive binding assay, μ-opioid receptors, [3H]DAMGO", "parameters": "species or system Sprague-Dawley rats"}, "[7]": {"biological_target": "T1, δ-opioid receptors", "test": "Competitive binding assay, δ-opioid receptors, [3H]deltorphin II", "parameters": "species or system Sprague-Dawley rats", "conditions": "for selectivity Ki^μ/Ki^δ: ratio of binding Ki values"}, "[8]": {"conditions": "about 2 units lower than Tyr; cited from earlier work"}, "[9]": {"biological_target": "δ opioid receptor", "conditions": "read-out: δ agonist IC50; cited from earlier work"}}, "note": "Read-outs that look alike come from different tables or passages of the source. Where a SMILES comes first, the peptide text is derived from it. [ ]: non-standard residue; d: D form. The star is where a group is joined. Dmt = Cc1cc(O)cc(C)c1C[C@H](N)C(=O)O; Tic = O=C(O)[C@@H]1Cc2ccccc2CN1; NHBn = c1ccc(CN*)cc1"}
{"molecule": "Cc1cc(O)cc(C)c1C[C@H](N)C(=O)N1Cc2ccccc2C[C@H]1C(=O)N[C@@H](CCCCN)C(=O)NCc1ccccc1", "note": "[Compound 10, H-Dmt-Tic-Lys-NH-Bzl] (H-[Dmt]-[Tic]-Lys-NHBn)", "values": [{"measurement": "selectivity Ki^μ/Ki^δ", "setting": "[1]", "result": 8}, {"measurement": "functional bioactivity MVD pA2", "setting": "[2]; ref Balboni et al.[14]", "result": 6.01}, {"measurement": "functional bioactivity GPI pA2", "setting": "[3]; ref Balboni et al.[14]", "result": 7.96}]}
{"molecule": "CC(C)[C@H](NC(=O)[C@H](CCC(=O)O)NC(=O)[C@H](Cc1ccccc1)NC(=O)[C@@H](C)NC(=O)[C@@H](N)Cc1c(F)cc(O)cc1F)C(=O)N[C@H](C(=O)NCC(N)=O)C(C)C", "note": "[Compound 8, [Dft^1]Deltorphin B]", "values": [{"measurement": "IC50", "setting": "[4]", "result": "3560 ± 566", "unit": "nM"}, {"measurement": "IC50", "setting": "[5]", "result": "0.4 ± 0.08", "unit": "nM"}, {"measurement": "Ki", "setting": "[6]", "result": "154 ± 19", "unit": "nM"}, {"measurement": "Ki", "setting": "[7]", "result": "0.241 ± 0.03", "unit": "nM"}, {"measurement": "selectivity Ki^μ/Ki^δ", "setting": "[7]", "result": 640}]}
{"molecule": "Cc1cc(O)cc(C)c1C[C@@H](C(=O)N1Cc2ccccc2C[C@H]1C(=O)O)N(C)C", "note": "[Compound 13, N,N(Me)2-Dmt-Tic-OH]", "values": [{"measurement": "functional bioactivity MVD pA2", "setting": "[2]; ref Salvadori et al.[15]", "result": 9.4}, {"measurement": "functional bioactivity GPI pA2", "setting": "[3]; ref Salvadori et al.[15]", "result": 5.8}]}
{"molecule": "NCCCC[C@H](NC(=O)[C@@H]1Cc2ccccc2CN1C(=O)[C@@H](N)Cc1ccc(O)cc1)C(=O)NCc1ccccc1", "note": "[Compound 12, H-Tyr-Tic-Lys-NH-Bzl] (H-Tyr-[Tic]-Lys-NHBn)", "values": [{"measurement": "Ki", "setting": "[6]", "result": "1650 ± 231", "unit": "nM"}, {"measurement": "Ki", "setting": "[7]", "result": "63.9 ± 7.6", "unit": "nM"}, {"measurement": "selectivity Ki^μ/Ki^δ", "setting": "[7]", "result": 26}]}
{"molecule": "CC(C)[C@H](NC(=O)[C@H](CCC(=O)O)NC(=O)[C@H](Cc1ccccc1)NC(=O)[C@@H](C)NC(=O)[C@@H](N)Cc1ccc(O)cc1)C(=O)N[C@H](C(=O)NCC(N)=O)C(C)C", "note": "[Compound 9, H-Tyr-D-Ala-Phe-Glu-Val-Val-Gly-NH2, reference compound]", "values": [{"measurement": "IC50", "setting": "[4]", "result": "> 10000", "unit": "nM"}]}
{"molecule": "N[C@@H](Cc1c(F)cc(O)cc1F)C(=O)O", "note": "[Dft, 2′,6′-difluoro-L-tyrosine]", "values": [{"measurement": "pKa", "setting": "[8]", "result": 8.1}]}
{"molecule": "Cc1cc(O)cc(C)c1C[C@@H](C(=O)N1Cc2ccccc2C[C@H]1C(N)=O)N(C)C", "note": "[Compound 16, N,N(Me)2-Dmt-Tic-NH2]", "values": [{"measurement": "functional bioactivity MVD pA2", "setting": "[2]; ref Salvadori et al.[15]", "result": 9.9}, {"measurement": "functional bioactivity GPI pA2", "setting": "[3]; ref Salvadori et al.[15]", "result": 6.3}]}
{"molecule": "NCCCC[C@H](NC(=O)[C@@H]1Cc2ccccc2CN1C(=O)[C@@H](N)Cc1c(F)cc(O)cc1F)C(=O)NCc1ccccc1", "note": "[Compound 11, H-Dft-Tic-Lys-NH-Bzl]", "values": [{"measurement": "Ki", "setting": "[6]", "result": "1030 ± 83", "unit": "nM"}, {"measurement": "Ki", "setting": "[7]", "result": "153 ± 21", "unit": "nM"}, {"measurement": "selectivity Ki^μ/Ki^δ", "setting": "[7]", "result": 7}]}
{"molecule": "H-Bcp-Tic-Phe-Phe-OH", "values": [{"measurement": "IC50", "setting": "[9]", "result": 3.42, "unit": "nM"}]}
